Source: PubChem BioAssay (NCI)
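Five compound concentrations were applied to cells in 96-well plates for 48 hours; endpoints were derived by simple linear interpolation of the resulting dose-response curve. At the TGI there is no net growth.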

Assays:
Test in all cases: growth of human tumour cells (NCI), 48 h
[1] = tested on: SK-OV-3 ovarian
[2] = tested on: SK-MEL-28 melanoma
[3] = tested on: UACC-62 melanoma
[4] = tested on: SK-MEL-2 melanoma
[5] = tested on: HOP-92 NSCLC
[6] = tested on: SNB-19 CNS
[7] = tested on: UO-31 renal
[8] = tested on: OVCAR-4 ovarian
[9] = tested on: HL-60(TB) leukemia
[10] = tested on: HCT-15 colon
[11] = tested on: MDA-N
[12] = tested on: KM12 colon
[13] = tested on: MDA-MB-435
[14] = tested on: OVCAR-5 ovarian
[15] = tested on: U251 CNS
[16] = tested on: CCRF-CEM leukemia
[17] = tested on: MALME-3M melanoma
[18] = tested on: SR leukemia
[19] = tested on: M14 melanoma
[20] = tested on: SN12C renal
[21] = tested on: COLO 205 colon
[22] = tested on: A549 NSCLC
[23] = tested on: PC-3 prostate
[24] = tested on: NCI-H23 lung
[25] = tested on: SF-295 CNS
[26] = tested on: NCI-H522 lung
[27] = tested on: LOX IMVI melanoma
[28] = tested on: T-47D breast
[29] = tested on: HS 578T breast
[30] = tested on: SF-268 CNS
[31] = tested on: HCC-2998 colon
[32] = tested on: SK-MEL-5 melanoma
[33] = tested on: BT-549 breast
[34] = tested on: EKVX NSCLC
[35] = tested on: SNB-75 CNS
[36] = tested on: IGROV1 ovarian
[37] = tested on: HCT-116 colon
[38] = tested on: CAKI-1 renal
[39] = tested on: SF-539 CNS
[40] = tested on: ACHN renal
[41] = tested on: UACC-257 melanoma
[42] = tested on: TK-10 renal
[43] = tested on: DU-145 prostate
[44] = tested on: HT29 colon
[45] = tested on: SW-620 colon
[46] = tested on: 786-0 renal
[47] = tested on: MDA-MB-231 breast
[48] = tested on: RPMI-8226 leukemia
[49] = tested on: OVCAR-8 ovarian
[50] = tested on: MCF7 breast
[51] = tested on: OVCAR-3 ovarian
[52] = tested on: HOP-62 NSCLC
[53] = tested on: K-562 leukemia
[54] = tested on: MOLT-4 leukemia
[55] = tested on: NCI-H226 lung
[56] = tested on: NCI/ADR-RES ovarian
[57] = tested on: RXF 393 renal
[58] = tested on: NCI-H460 lung
[59] = tested on: A498 renal

## COC1CC(OC2C(C)OC(OC3C(C)OC(OC4C(C)OC(O[C@H]5CC[C@@]6(C)C(=CC[C@]7(O)[C@@H]6C[C@@H](O)[C@@]6(C)[C@]7(O)CC[C@@]6(O)C(C)=O)C5)CC4OC)CC3OC)CC2OC)OC(C)C1O (stereo partly drawn)
[1]
  TGI: > 12.5 µM
[2]
  TGI: > 12.5 µM
[3]
  TGI: > 12.5 µM
[4]
  TGI: > 12.5 µM
[5]
  TGI: > 12.5 µM
[6]
  TGI: > 12.5 µM
[7]
  TGI: > 12.5 µM
[8]
  TGI: > 12.5 µM
[9]
  TGI: > 12.5 µM
[10]
  TGI: > 12.5 µM
[11]
  TGI: > 12.5 µM
[12]
  TGI: > 12.5 µM
[13]
  TGI: > 12.5 µM
[14]
  TGI: > 12.5 µM
[15]
  TGI: > 12.5 µM
[16]
  TGI: > 12.5 µM
[17]
  TGI: > 12.5 µM
[18]
  TGI: > 12.5 µM
[19]
  TGI: > 12.5 µM
[20]
  TGI: > 12.5 µM
[21]
  TGI: > 12.5 µM
[22]
  TGI: > 12.5 µM
[23]
  TGI: > 12.5 µM
[24]
  TGI: > 12.5 µM
[25]
  TGI: > 12.5 µM
[26]
  TGI: > 12.5 µM
[27]
  TGI: > 12.5 µM
[28]
  TGI: > 12.5 µM
[29]
  TGI: > 12.5 µM
[30]
  TGI: > 12.5 µM
[31]
  TGI: > 12.5 µM
[32]
  TGI: > 12.5 µM
[33]
  TGI: > 12.5 µM
[34]
  TGI: > 12.5 µM
[35]
  TGI: > 12.5 µM
[36]
  TGI: > 12.5 µM
[37]
  TGI: > 12.5 µM
[38]
  TGI: > 12.5 µM
[39]
  TGI: > 12.5 µM
[40]
  TGI: > 12.5 µM
[41]
  TGI: > 12.5 µM
[42]
  TGI: > 12.5 µM
[43]
  TGI: > 12.5 µM
[44]
  TGI: > 12.5 µM
[45]
  TGI: > 12.5 µM
[46]
  TGI: > 12.5 µM
[47]
  TGI: > 12.5 µM
[48]
  TGI: > 12.5 µM
[49]
  TGI: > 12.5 µM
[50]
  TGI: > 12.5 µM
[51]
  TGI: > 12.5 µM
[52]
  TGI: > 12.5 µM
[53]
  TGI: > 12.5 µM
[54]
  TGI: > 12.5 µM
[55]
  TGI: > 12.5 µM
[56]
  TGI: > 12.5 µM

## Cc1cc(Br)cc(C)c1NC(=O)C(=O)Nn1c(=S)[nH]c2ccccc2c1=O
[1]
  TGI: > 100 µM
[2]
  TGI: > 100 µM
[3]
  TGI: > 100 µM
[4]
  TGI: > 100 µM
[5]
  TGI: > 100 µM
[6]
  TGI: > 100 µM
[7]
  TGI: > 100 µM
[8]
  TGI: > 100 µM
[9]
  TGI: > 100 µM
[10]
  TGI: > 100 µM
[57]
  TGI: > 100 µM
[11]
  TGI: > 100 µM
[12]
  TGI: > 100 µM
[13]
  TGI: > 100 µM
[14]
  TGI: > 100 µM
[15]
  TGI: > 100 µM
[16]
  TGI: > 100 µM
[58]
  TGI: > 100 µM
[17]
  TGI: > 100 µM
[18]
  TGI: > 100 µM
[19]
  TGI: > 100 µM
[20]
  TGI: > 100 µM
[22]
  TGI: > 100 µM
[23]
  TGI: > 100 µM
[24]
  TGI: > 100 µM
[25]
  TGI: > 100 µM
[26]
  TGI: > 100 µM
[59]
  TGI: > 100 µM
[27]
  TGI: > 100 µM
[28]
  TGI: > 100 µM
[29]
  TGI: > 100 µM
[30]
  TGI: > 100 µM
[31]
  TGI: > 100 µM
[32]
  TGI: > 100 µM
[33]
  TGI: > 100 µM
[34]
  TGI: > 100 µM
[35]
  TGI: > 100 µM
[36]
  TGI: > 100 µM
[37]
  TGI: > 100 µM
[38]
  TGI: > 100 µM
[39]
  TGI: > 100 µM
[40]
  TGI: > 100 µM
[41]
  TGI: > 100 µM
[42]
  TGI: > 100 µM
[44]
  TGI: > 100 µM
[45]
  TGI: > 100 µM
[46]
  TGI: > 100 µM
[47]
  TGI: > 100 µM
[48]
  TGI: > 100 µM
[49]
  TGI: > 100 µM
[50]
  TGI: > 100 µM
[51]
  TGI: > 100 µM
[52]
  TGI: > 100 µM
[53]
  TGI: > 100 µM
[54]
  TGI: > 100 µM
[55]
  TGI: > 100 µM
[56]
  TGI: > 100 µM
